Assay results as given in PMC12529164, “Design, Synthesis, Structure–Activity Relationships, and Preliminary Anticancer Properties of Menthol-Modified Coumarin Esters and 3,4-Dihydrocoumarin Derivatives” (ACS Omega, 2025).
Like-named read-outs stand apart in the source and are kept apart here.

What was measured:
[1] = test system: tested cancer cell lines (SW480, SW620, PC3, MDA-MB-231); test: MTT assay, mean over tested cancer cell lines; type: cell-based; conditions: Homo sapiens, mean of the four cancer cell lines
Description: They were added to 96-well plates with seeded normal and cancer cells (1 × 10^4 cells per well) and incubated for 72 h. MTT analysis was performed according to a previous study. […]

PC3 [2] = test: Annexin V-FITC/PI flow cytometry; type: cell-based, human; conditions: PC3, compound at IC50, 72 h, mean
Description: (§1) The apoptotic and necrotic cells treated with derivatives 2b, 4a, 4b were detected using FITC Annexin V Apoptosis Detection Kit I (BD Biosciences Pharmingen). Briefly, cells (2 × 10^5 cells/well) were seeded in 6-well plates in supplemented medium. […] Then cells were harvested, washed, and labeled with Annexin V-FITC and propidium iodide (PI) according to the manufacturer’s protocol. The stained cells were analyzed by flow cytometry. The cells were identified as early apoptotic (Annexin V+/PI−) or late apoptotic/necrotic (Annexin V+/PI+).

HaCaT [3] = test: Annexin V-FITC/PI flow cytometry; type: cell-based, human; conditions: compound at IC50, 72 h, mean
Description: as §1

PC3 [4] = test: Trypan blue assay; type: cell-based, human; conditions: PC3, compound at IC50, 72 h
Description: (§2) The total cell count was assessed by trypan blue exclusion dye assay using automated cell counter (Countess Invitrogen). Untreated cells were used as the control. Each experiment was repeated 5 times.

HaCaT [5] = test: Trypan blue assay; type: cell-based, human; conditions: compound at IC50, 72 h; for cell number: mean; for reduction of number of cells: vs control
Description: as §2

Trypan blue assay = type: cell-based, human; conditions: human, HaCaT cells, compound at IC50, 72 h, mean
Description: as §2

IL-6 in HaCaT cells = test: Interleukin-6 ELISA; type: cell-based, human; conditions: compound at IC50, 72 h; for IL-6 concentration: ELISA
Description: (§3) The concentration of Interleukin-6 (IL-6) was measured in cell culture supernatant using Interleukin IL-6 High Sensitivity ELISA kit (Diaclon SAS, Besancon Cedex, France). Cells (1 × 10^5 cells/well) were seeded in 12-well plates with medium for 24 h. […] After this incubation, the supernatants were collected and 100 μL of supernatant samples, control solutions and blank were added to precoated ELISA plate with the preceding plotting of the standard curve. Then 50 μL of diluted biotinylated antihuman interleukin-6 antibody was added and incubated at room temperature for 3 h. Afterward, the plate was washed three times and 100 μL streptavidin-HRP solution was added to each well. After 30 min incubation, the plate was washed again three times and 100 μL of tetramethylbenzidine (TMB) solution was added to each well. The plate was incubated for 15 min in the dark. The reaction was stopped by adding 100 μL of H2SO4 solution. The absorbance was estimated using a spectrophotometer at 450 nm (Microplate Spectrophotometer Thermo Scientific Multiskan GO).

IL-6 in PC3 cells = test: Interleukin-6 ELISA; type: cell-based, human; conditions: PC3, compound at IC50, 72 h
Description: as §3

HaCaT [6] = test: MTT cytotoxicity assay, normal cells; type: cell-based; conditions: 72 h, human immortal keratinocytes (normal cells); for IC50: HaCaT
Description: (§4) The human primary (SW480) and metastatic (SW620) colon cancer, metastatic prostate cancer (PC3), breast adenocarcinoma (MDA-MB-231) and human immortal keratinocyte (HaCaT) cell lines were recruited from the American Type Culture Collection (ATCC). The cells were cultured in the recommended medium according to protocols (RPMI 1640 for PC3, MEM for SW480 and SW620, as well as DMEM for MDA-MB-231 and HaCaT cells) with addition of 10% FBS, penicillin (100 U/mL), and streptomycin (100 μg/mL) and cultured in 37 °C/5% CO2 in a humidified incubator. Then, the cells were passaged at a confluence of 80–90% by a treatment with 0.25% trypsin (Gibco Life Technologies) and used for studies.
(§5) They were added to 96-well plates with seeded normal and cancer cells (1 × 10^4 cells per well) and incubated for 72 h. MTT analysis was performed according to a previous study.

PC3 [7] = test: MTT cytotoxicity assay; type: cell-based, human; conditions: for IC50: PC-3, MTT, 72 h, human metastatic prostate cancer; for SI PC3: SI = IC50 for normal cell line (HaCaT)/IC50 cancer cell line
Description: as §4, §5

SW480 = test: MTT cytotoxicity assay; type: cell-based, human; conditions: for SI SW480: SI = IC50 for normal cell line (HaCaT)/IC50 cancer cell line; for IC50: SW480, MTT, 72 h, human primary colon cancer
Description: as §4, §5

MDA-MB-231 = test: MTT cytotoxicity assay; type: cell-based, human; conditions: for IC50: MDA-MB-231, MTT, 72 h, human breast adenocarcinoma; for SI MDA-MB-231: SI = IC50 for normal cell line (HaCaT)/IC50 cancer cell line
Description: as §4, §5

SW620 [8] = test: MTT cytotoxicity assay; type: cell-based, human; conditions: for SI SW620: SI = IC50 for normal cell line (HaCaT)/IC50 cancer cell line; for IC50: SW-620, MTT, 72 h, human metastatic colon cancer
Description: as §4, §5

SW620 [9] = test: Annexin V-FITC/PI flow cytometry; type: cell-based, human; conditions: SW620, compound at IC50, 72 h, mean
Description: as §1

SW620 [10] = test: Trypan blue assay; type: cell-based, human; conditions: SW620, compound at IC50, 72 h
Description: as §2

IL-6 in SW620 cells = test: Interleukin-6 ELISA; type: cell-based, human; conditions: SW620, compound at IC50, 72 h
Description: as §3

[11] = read-out: average IC50 against tested cancer cell lines

Compound | IC50 [1, 11] [µM] | Early apoptosis [%] (HaCaT [3]) | Late apoptosis [%] (HaCaT [3]) | Necrosis [%] (HaCaT [3]) | cell number (HaCaT [5]) | reduction of number of cells (HaCaT [5]) | viability at 72 h (Trypan blue assay) [%] | IL-6 concentration (IL-6 in HaCaT cells) [pg/mL] | IC50 (HaCaT [6]) [µM] | IC50 (PC3 [7]) [µM] | SI PC3 (PC3 [7]) | SI SW480 (SW480) | IC50 (SW480) [µM] | IC50 (MDA-MB-231) [µM] | SI MDA-MB-231 (MDA-MB-231) | SI SW620 (SW620 [8]) | IC50 (SW620 [8]) [µM] | further results
COc1cccc2c1OC(=O)C(C(=O)O[C@@H]1C[C@H](C)CC[C@H]1C(C)C)C2P(=O)(c1ccccc1)c1ccccc1 (mixture of isomers) [Compound 4b, (1R,2S,5R)-2-Isopropyl-5-methylcyclohexyl-4-(diphenylphosphoryl)-8-methoxy-2-oxochromane-3-carboxylate] | 28.7 | 2.55 | 0.85 | 0.45 | 5.23 x106 | 16.6% | 98.3 | 10.5 ± 0.94 | 27.6 ± 3.12 | 9.9 ± 1.42 | 2.78 | 0.73 | 37.4 ± 2.45 | 47.6 ± 4.73 | 0.58 | 1.39 | 19.8 ± 0.63 | IC50 ([1]; Table S7, >100 entered as 100, read-out: mean anticancer IC50): 28.7 µM; Early apoptosis [%] (PC3 [2]): 10.50%; Late apoptosis [%] (PC3 [2]): 3.90%; Necrosis [%] (PC3 [2]): 0.20%; cell number (PC3 [4]; mean): 4.26 x106; viability (%) (PC3 [4]; mean): 94%; reduction of number of live cells (PC3 [4]; vs control): 35.3%; reduction of IL-6 concentration (IL-6 in HaCaT cells; vs control): did not alter IL-6 secretion; IL-6 concentration (IL-6 in PC3 cells; ELISA): 0.9 ± 0.03 pg/mL; reduction of IL-6 level (IL-6 in PC3 cells; vs control): 79.2%
CCOP(=O)(OCC)c1cc2cccc(OC)c2oc1=O [Compound 2b, Diethyl (8-Methoxy-2-oxo-2H-chromen-3-yl)phosphonate] | > 77.5 | 2.60 | 1.30 | 0.30 | 5.66 x106 | below 10% | 94.7 | 11.3 ± 0.59 | > 100 | > 100 | 1 | 1 | > 100 | > 100 | 1 | 9.8 | 10.2 ± 1.63 | Necrosis [%] (SW620 [9]): 0.60%; cell number (SW620 [10]; mean): 2.26 x106; viability (%) (SW620 [10]; mean): 98.66%; reduction of number of live cells (SW620 [10]; vs control): 36.4%; increase in interleukin level (IL-6 in HaCaT cells; vs control): 10.7%; IL-6 concentration (IL-6 in SW620 cells; ELISA): 2.1 ± 0.22 pg/mL; reduction of IL-6 level (IL-6 in SW620 cells; vs control): 33.5%; IC50 HaCaT (HaCaT [6]): did not show any cytotoxic effects
